One series concerns SCC-25. The experiment in a line: Antiproliferative activity against human SCC-25 cells assessed as inhibition rate at 0.1 uM incubated for 72 hrs by MTT assay relative to control. The class given is functional. Background: Tetrazolium assays rely on reduction of a dye to a coloured formazan, in cell work by metabolically active cells.
The next series relates to SCC-9. The experiment in a line: Antiproliferative activity against human SCC-9 cells assessed as inhibition rate at 0.1 uM incubated for 72 hrs by MTT assay relative to control. The class given is functional.
Series [1] is described as follows: Antiproliferative activity against human L02 cells assessed as inhibition rate at 0.1 uM incubated for 72 hrs by MTT assay relative to control. The class given is toxicity, cell-based.
Series [2] is described as follows: Antiproliferative activity against human WSU HN-30 cells assessed as inhibition rate at 0.1 uM incubated for 72 hrs by MTT assay relative to control. Type of series: functional. Particulars: WSU-HN30.
The nature of series [3]: Antiproliferative activity against human HN-6 cells assessed as inhibition rate at 0.1 uM incubated for 72 hrs by MTT assay relative to control. Type of series: functional.
The next series relates to CAL-27. As to the kind of experiment: Antiproliferative activity against human CAL-27 cells assessed as inhibition rate at 0.1 uM incubated for 72 hrs by MTT assay relative to control. The class given is functional.

Drawing on ChEMBL document CHEMBL6153048, “Synthesis and pharmacological evaluation of natural product diphyllin derivatives against head and neck squamous cell carcinoma” (Eur J Med Chem, 2025), this text covers inhibition for 17 compounds.

Regarding `COc1cc2c(O[C@@H]3O[C@@H]4CO[C@@H](c5cccc(C(F)(F)F)c5)O[C@H]4[C@H](O)[C@H]3O)c3c(c(-c4ccc5c(c4)OCO5)c2cc1OC)C(=O)OC3`, the inhibition at 0.1 µM came to 33.6% in the series with SCC-25; 37.5% in the series on SCC-9; 40.9% in series [2]; 60.6% in series [3]; 37.4% in the series on CAL-27. Moreover, in series [1], the inhibition at 72 h, 0.1 µM was determined as 9.53%.
With `COc1cc2c(OCCOCCNC(=O)[C@H]3[C@@H]4CNC[C@@H]43)c3c(c(-c4ccc5c(c4)OCO5)c2cc1OC)C(=O)OC3`, the inhibition at 0.1 µM was determined as 14.7% with SCC-25; 17.5% with SCC-9; 6.67% in series [2]; 7.38% in series [3]; 2.26% in the series with CAL-27. Besides, in series [1], the inhibition at 72 h, 0.1 µM came to 3.53%.
As to `COc1cc2c(OCCOCCNC(=O)CON)c3c(c(-c4ccc5c(c4)OCO5)c2cc1OC)C(=O)OC3`, the inhibition at 0.1 µM with SCC-25 is 31.8%; with SCC-9 it was 18.7%; in series [2], 23.5%; in series [3], 18.7%; in the series on CAL-27, 33%. In addition, in series [1], the inhibition at 72 h, 0.1 µM came out at 9.46%.
For the compound `COc1cc2c(O[C@@H]3O[C@@H]4CO[C@@H](C5CCCC5)O[C@H]4[C@H](O)[C@H]3O)c3c(c(-c4ccc5c(c4)OCO5)c2cc1OC)C(=O)OC3`, the inhibition at 0.1 µM stood at 49.1% in the series with SCC-25; 42% in the series with SCC-9; 40.5% in series [2]; 54.2% in series [3]; 8.02% in the series with CAL-27. Besides, the inhibition at 72 h, 0.1 µM in series [1] is 9.37%.
On to `COc1cc2c(O[C@@H]3O[C@@H]4CO[C@@H](c5ccc(C)s5)O[C@H]4[C@H](O)[C@H]3O)c3c(c(-c4ccc5c(c4)OCO5)c2cc1OC)C(=O)OC3`, for which the inhibition at 0.1 µM with SCC-25 was 41%; in the series with SCC-9, 46.2%; in series [2], 40.1%; in series [3], 57.2%; in the series on CAL-27 it was 32.4%. Also, the inhibition at 72 h, 0.1 µM in series [1] is 9.5%.
As for `COc1cc2c(O[C@@H]3O[C@@H]4CO[C@@H](c5ccc(SC)cc5)O[C@H]4[C@H](O)[C@H]3O)c3c(c(-c4ccc5c(c4)OCO5)c2cc1OC)C(=O)OC3`, the inhibition at 0.1 µM in the series on SCC-25 turned out to be 35.4%; in the series on SCC-9, 41.1%; in series [2] it was 47.4%; in series [3], 57.1%; with CAL-27 it was 35.9%. The inhibition at 72 h, 0.1 µM in series [1] turned out to be 6.84%.
Take `COc1cc2c(OCCOCCNC(=O)[C@@H]3CCC(=O)N3)c3c(c(-c4ccc5c(c4)OCO5)c2cc1OC)C(=O)OC3`: the inhibition at 0.1 µM in the series with SCC-25 is 18.5%; with SCC-9, 8.65%; in series [2], 15.9%; in series [3] it was 19.8%; with CAL-27, 29.5%. Further, the inhibition at 72 h, 0.1 µM in series [1] came out at 6.04%.
Take `CCC(CC)[C@@H]1OC[C@H]2O[C@@H](Oc3c4c(c(-c5ccc6c(c5)OCO6)c5cc(OC)c(OC)cc35)C(=O)OC4)[C@H](O)[C@@H](O)[C@@H]2O1`: the inhibition at 0.1 µM in the series on SCC-25 amounted to 44.9%; in the series on SCC-9 it was 43.2%; in series [2], 38.3%; in series [3] it was 55.1%; in the series on CAL-27, 24.3%. In addition, in series [1], the inhibition at 72 h, 0.1 µM stood at 8.83%.
Take `COc1cc2c(OCCOCCNC(=O)C3=C[C@H](O)[C@H](O)[C@@H](O)C3)c3c(c(-c4ccc5c(c4)OCO5)c2cc1OC)C(=O)OC3`: the inhibition at 0.1 µM stood at 31.4% in the series on SCC-25; 22.2% in the series on SCC-9; 16.2% in series [2]; 27.2% in series [3]; 31.1% in the series on CAL-27. Moreover, the inhibition at 72 h, 0.1 µM in series [1] worked out at 5.67%.
As to `COc1cc2c(OCCOCCNC(=O)C(F)(F)[C@]3(O)O[C@H](CO)[C@@H](O)[C@H](O)[C@H]3O)c3c(c(-c4ccc5c(c4)OCO5)c2cc1OC)C(=O)OC3`, the inhibition at 0.1 µM with SCC-25 is 10.2%; in the series with SCC-9, 13.9%; in series [2], 8.25%; in series [3] it was 4.3%; in the series on CAL-27 it was 1.73%. Besides, the inhibition at 72 h, 0.1 µM in series [1] came to 1.74%.
As to `COc1cc2c(NC(=O)C(F)(F)[C@]3(OCc4ccccc4)O[C@H](COCc4ccccc4)[C@@H](OCc4ccccc4)[C@H](OCc4ccccc4)[C@H]3OCc3ccccc3)c3c(c(-c4ccc5c(c4)OCO5)c2cc1OC)C(=O)OC3`, the inhibition at 0.1 µM in the series on SCC-25 worked out at 17.8%; in the series with SCC-9, 14.7%; in series [2], 8.5%; in series [3], 12.7%; in the series on CAL-27, 26.1%. In series [1], the inhibition at 72 h, 0.1 µM turned out to be 3.29%.
With `COc1cc2c(OCCN)c3c(c(-c4ccc5c(c4)OCO5)c2cc1OC)C(=O)OC3`, the inhibition at 0.1 µM turned out to be 10.8% in the series on SCC-25; 30.4% in the series on SCC-9; 18.9% in series [2]; 28.2% in series [3]; 6.31% in the series on CAL-27. Further, the inhibition at 72 h, 0.1 µM in series [1] came out at 7.89%.
For the compound `COc1cc2c(OCCOCCNC(=O)C3CNCC(F)(F)C3)c3c(c(-c4ccc5c(c4)OCO5)c2cc1OC)C(=O)OC3` (configuration not stated), the inhibition at 0.1 µM in the series with SCC-25 amounted to 23.2%; in the series with SCC-9 it was 25.6%; in series [2], 11.7%; in series [3], 10.2%; with CAL-27, 2.03%. Further, the inhibition at 72 h, 0.1 µM in series [1] is 10.6%.
`COc1cc2c(NC(=O)C(F)(F)[C@]3(O)O[C@H](CO)[C@@H](O)[C@H](O)[C@H]3O)c3c(c(-c4ccc5c(c4)OCO5)c2cc1OC)C(=O)OC3`: the inhibition at 0.1 µM in the series with SCC-25 was 28.2%; with SCC-9, 19.4%; in series [2], 12.3%; in series [3], 13.1%; with CAL-27, 27.6%. In addition, the inhibition at 72 h, 0.1 µM in series [1] came to 4.58%.
In the case of `COc1cc2c(O[C@@H]3O[C@@H]4CO[C@@H](C5CCOCC5)O[C@H]4[C@H](O)[C@H]3O)c3c(c(-c4ccc5c(c4)OCO5)c2cc1OC)C(=O)OC3`, the inhibition at 0.1 µM with SCC-25 turned out to be 24.6%; in the series with SCC-9, 35.4%; in series [2] it was 28.9%; in series [3], 58.9%; with CAL-27 it was 35.5%. Further, in series [1], the inhibition at 72 h, 0.1 µM was 6.66%.
On to `COc1cc2c(OCCOCCNC(=O)C3(F)CNC3)c3c(c(-c4ccc5c(c4)OCO5)c2cc1OC)C(=O)OC3`, for which the inhibition at 0.1 µM was 19.5% in the series with SCC-25; 32.6% with SCC-9; 10.7% in series [2]; 10.8% in series [3]; 9.95% with CAL-27. In addition, in series [1], the inhibition at 72 h, 0.1 µM was 3.51%.
For the compound `COc1cc2c(OCCOCCNC(=O)[C@@H]3CC(F)(F)CN3)c3c(c(-c4ccc5c(c4)OCO5)c2cc1OC)C(=O)OC3`, the inhibition at 0.1 µM is 41.7% in the series with SCC-25; 35.3% in the series with SCC-9; 19.9% in series [2]; 22.3% in series [3]; 2.62% in the series with CAL-27. The inhibition at 72 h, 0.1 µM in series [1] was 8.13%.

One may read the inhibition as the percentage by which the read-out fell short of the control.
